Assay results from paper PMC5039586, “Biofilms from Klebsiella pneumoniae: Matrix Polysaccharide Structure and Interactions with Antimicrobial Peptides” (Microorganisms, 2016).
Ends that are not written are not given here.

How the values were obtained:
KpTs113 [1] = experiment: Peptide uptake by flow cytometry with Trypan Blue quenching; format: cell-based, Klebsiella pneumoniae; details: KpTs113, 0.25 µM peptide, 10 min, 37 °C, 1 mg/mL TB
Description: Flow cytometric assays were performed with a Cytomics FC 500 instrument (Beckman-Coulter, Inc., Fullerton, CA, USA) equipped with an argon laser (488 nm, 5 mW) and photomultiplier tube fluorescence detectors. Filtered light wavelength was set at 610 nm for Propidium Iodide (PI) (Sigma, Saint Louis, MO, USA) detection and at 525 nm for BODIPY (BY) detection. All detectors were set on logarithmic amplification. Optical and electronic noise were eliminated by setting an electronic gating threshold on the forward scattering detector, while the flow rate was kept at a data rate below 300 events/second to avoid cell coincidence. For each sample, at least 10,000 events were acquired and stored as list mode files. For the uptake evaluation, cultures of mid-log phase bacteria, diluted to 1 × 10^6 CFU/mL in MHB, were incubated at 37 °C for 10 min with 0.25 µM Bac7(1–35)-BY; after incubation, treated bacterial cells were washed three times in buffered high salt solution (10 mM sodium phosphate, 400 mM NaCl, 10 mM MgCl2, pH 7.2) in order to remove the fraction of peptide bound to the cell surfaces, and immediately analysed by the flow cytometer with or without a 10 min pre-incubation at room temperature with 1 mg/mL of the quencher Trypan Blue (TB).

ATCC 700603 = format: cell-based, Klebsiella pneumoniae; details: ATCC 700603, 24 h
Description: (§1) The bacterial inoculum was incubated overnight in MHB with shaking, then diluted 1:30 in fresh MHB and incubated with shaking for approximately 2 h to the mid-log phase, before resuspending to the appropriate dose, according to the optical density (OD). Minimum inhibitory concentration (MIC) determinations were carried out in MHB on mid-log phase bacteria (1–5 × 10^5 CFU/mL, CFU: colony-forming units) as previously described.

KpMn7 = format: cell-based, Klebsiella pneumoniae; details: 24 h
Description: as §1

KpTs101 [2] = format: cell-based, Klebsiella pneumoniae; details: 24 h
Description: as §1

KpTs107 = format: cell-based, Klebsiella pneumoniae; details: 24 h
Description: as §1

KpTs109 = format: cell-based, Klebsiella pneumoniae; details: 24 h
Description: as §1

KpTs113 [3] = format: cell-based, Klebsiella pneumoniae; details: 24 h
Description: as §1

KpTs12 = format: cell-based, Klebsiella pneumoniae; details: 24 h
Description: as §1

KpTs101 biofilm = experiment: Biofilm susceptibility assay (BIC), sessile cells on peg lids; format: cell-based, Klebsiella pneumoniae; details: sessile KpTs101, 24 h with peptide, then 6 h regrowth, OD590 < 0.05
KpTs113 biofilm = experiment: as above; format: cell-based, Klebsiella pneumoniae; details: sessile KpTs113, 24 h with peptide, then 6 h regrowth, OD590 < 0.05
KpTs101 [4] = format: cell-based, Klebsiella pneumoniae; details: 24 h; remark: listed apart in the source
Description: (§2) Minimum inhibitory concentration (MIC) determinations were carried out in MHB on mid-log phase bacteria (1–5 × 10^5 CFU/mL, CFU: colony-forming units) as previously described. […] Data are reported in Table 2 (Ps column) together with MIC and BIC values from Table 1 for an easy comparison. […] To further investigate this protection mechanism, we then determined if the matrix polysaccharide interacted with the helical AMP BMAP-27 by monitoring its effect on peptide structure, using circular dichroism.

KpTs113 [5] = format: cell-based, Klebsiella pneumoniae; details: 24 h; remark: listed apart in the source
Description: as §2

KpMn7 biofilm = details: 24 h
ATCC 700603 biofilm = details: ATCC 700603, 24 h
KpTs107 biofilm = details: 24 h
KpTs12 biofilm = details: 24 h
KpTs109 biofilm = details: 24 h

Substance	quenching of cell fluorescence by Trypan Blue (uptake) (KpTs113 [1]) [%]	MIC (ATCC 700603) [µM]	MIC (KpMn7) [µM]	MIC (KpTs101 [2]) [µM]	MIC (KpTs107) [µM]	MIC (KpTs109) [µM]	MIC (KpTs113 [3]) [µM]	MIC (KpTs12) [µM]	BIC (biofilm inhibitory concentration) (KpTs101 biofilm) [µM]	BIC (biofilm inhibitory concentration) (KpTs113 biofilm) [µM]	Ps, MIC in the presence of matrix polysaccharide (KpTs101 [4]) [µM]	Ps, MIC in the presence of matrix polysaccharide (KpTs113 [5]) [µM]	BIC (biofilm inhibitory concentration) (KpMn7 biofilm) [µM]	BIC (biofilm inhibitory concentration) (ATCC 700603 biofilm) [µM]	BIC (biofilm inhibitory concentration) (KpTs107 biofilm) [µM]	BIC (biofilm inhibitory concentration) (KpTs12 biofilm) [µM]	BIC (biofilm inhibitory concentration) (KpTs109 biofilm) [µM]
Bac7(1–35)-BY: BODIPY fluorescently labelled derivative of Bac7(1–35) (RRIRPRPPRLPRPRPRPLPFPRPGPRPIPRPLPFP; also: BODIPY label, position not given here; UniProt P19661 131-165, looked up, fragment)	< 10	–	–	–	–	–	–	–	–	–	–	–	–	–	–	–	–
GRFKRFRKKFKKLFKKLSPVIPLLHL-NH2 [BMAP-27]	–	4	4	2	4	4	2	4	>64	>64	64	64	64	64	>64	16	32
RRIRPRPPRLPRPRPRPLPFPRPGPRPIPRPLPFP [Bac7(1–35)]	–	4	4	2	4	4	2	4	64	64	32	32	32	32	16	8	32
